According to US20100323990A1, “SHIP 1 MODULATOR PRODRUGS” (THE UNIVERSITY OF BRITISH COLUMBIA, priority 2006, published 2010):
Each block holds one compound with its values, some of them ahead of it.

Assays:
[1] = tested on: J774.1a macrophage cells; assay: Macrophage TNF-α production (Assay 2); assay type: cell-based; details: 10 μg/mL test compound, 100 ng/mL LPS, supernatants after 2 hr and 5 hr; also: key: a ‘+’ indicates a positive result for desired activity; a ‘−’ indicates a negative result for desired activity
How it was run: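 J774.1a macrophages pretreated 40 min with 10 μg/mL compound, then LPS (100 ng/mL for TNF-α); TNF-α by ELISA in supernatants at 2 and 5 h, NO by Griess at 24 h. Mast cells IgE-loaded (anti-DNP), compound 30 min, DNP-HSA challenge; calcium flux by fura-2 spectrofluorometry, signalling by immunoblot.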

[2] = tested on: plasma TNFα; assay: Mouse endotoxemia model (Assay 6), plasma TNFα by ELISA; assay type: in vivo, mice; details: for Assay 6: Mouse endotoxemia model, desired activity: oral, 30 min prior to IP 2 mg/kg LPS, plasma TNFα 2 hrs later
Protocol: Assay 1) In vitro testing in a SHIP enzyme assay. Test compounds were dissolved in a suitable solvent (e.g. EtOH, DMSO and others) and diluted into aqueous buffer (20 mM Tris HCl, pH 7.5 and 10 mM MgCl2). SHIP enzyme assays were performed in 96-well microtitre plates with 10 ng of enzyme/well in a total volume of 25 μL of 20 mM Tris HCl, pH 7.5 and 10 mM MgCl2. SHIP enzyme was incubated with test extracts (provided in solvent) or vehicle for 15 min at 23° C. before the addition of 100 μM inositol-1,3,4,5-tetrakisphosphate (Echelon Biosciences Inc, Salt Lake City, Utah). After 20 min at 37° C. and the amount of inorganic phosphate released assessed by the addition of Malachite Green reagent and absorbance measurement at 650 nm. Assay 2) Macrophage TNF-α production. J774.1a macrophage cells were treated with 10 μg/mL of test compound dissolved in solvent (e.g. cyclodextran) for 40 minutes prior to the addition of 100 ng/mL LPS. Culture supernatants were collected after 2 hr and 5 hr for TNF-α determination by ELISA. Assay 3) Macrophage TNF-α NO assay. J774.1a macrophage cells were treated with 10 μg/ml of test compound dissolved in solvent for 40 minutes prior to the addition of LPS. Culture supernatants were collected after 24 hr. for determination of NO concentration using the Griess reagent. Assay 4) Stimulation of mast cells by FcεRI crosslinking. Mast cells were pre-loaded overnight in BMMC medium lacking IL-3 with 0.1 μg/ml anti-DNP IgE (SPE-7, Sigma, Oakville, Ont). For calcium flux measurements, cells were incubated with 2 μM fura 2-acetoxymethyl ester (Molecular Probes, Eugene, Oreg.) in Tyrode's buffer at 23° C. for 45 min. Cells were then washed and incubated in the presence of the test compound 30 min prior to stimulation with the indicated concentration of DNP-human serum albumin (DNP-HSA). Calcium influx was monitored by spectrofluorometry as described previously. For analysis of intracellular signaling, cells were pre-loaded with anti-DNP IgE as above, pre-treated with the test compound for 30 min at 37° C. and stimulated with 20 ng/ml DNP-HSA for 5 min. Total cell lysates were then prepared and analyzed for phospho-PKB, phospho-p38^MAPK, phospho-MAPK, Grb-2 (Cell Signalling, Mississauga, Ont) and SHIP^6 by immunoblot analysis. Assay 5) Mouse acute cutaneous anaphylaxis model. 6-8 week old CD1 mice (University of British Columbia Animal Facility, Vancouver, BC) were sensitized to the hapten DNP by cutaneous application of 25 μL of 0.5% dinitrofluorobenzene (DNFB) (Sigma, Oakville, Ont) in acetone to the shaved abdomen of mice for two consecutive days. 24 hrs later, test substances (dissolved in 10 μL of 1:2 DMSO:MeOH) were painted on the right ear while the left ear received vehicle control. 30 min after drug application, DNFB was applied to both ears to induce mast cell degranulation. A 6 mm punch was taken from the ear and immediately frozen on dry ice for subsequent determination of neutrophil myeloperoxidase (MPO) activity. Assay 6) Mouse endotoxemia model. […] The ability of SHIP activators to reduce tumor cell survival was assessed in MM cell lines treated with the test compound. The lines OPM1, OPM2, MM.1S and RPMI 8226 were plated at a density of 1×10^5 cells/mL in 200 μL of medium with various concentrations of the test compound, and viable cell numbers were determined on day 3 and day 5 by trypan blue exclusion. […]

[3] = tested on: MM cell lines; assay: In vitro Multiple Myeloma (MM) assay (Assay 7); assay type: cell-based; details: for Assay 7: In vitro Multiple Myeloma (MM) assay, desired activity: viable cell number by trypan blue, [3H]-thymidine; as to Assay 7: In vitro Multiple Myeloma (MM) assay, desired activity: key: a ‘+’ indicates a positive result for desired activity; a ‘−’ indicates a negative result for desired activity
Protocol: Assay 1) In vitro testing in a SHIP enzyme assay. Test compounds were dissolved in a suitable solvent (e.g. EtOH, DMSO and others) and diluted into aqueous buffer (20 mM Tris HCl, pH 7.5 and 10 mM MgCl2). SHIP enzyme assays were performed in 96-well microtitre plates with 10 ng of enzyme/well in a total volume of 25 μL of 20 mM Tris HCl, pH 7.5 and 10 mM MgCl2. SHIP enzyme was incubated with test extracts (provided in solvent) or vehicle for 15 min at 23° C. before the addition of 100 μM inositol-1,3,4,5-tetrakisphosphate (Echelon Biosciences Inc, Salt Lake City, Utah). After 20 min at 37° C. and the amount of inorganic phosphate released assessed by the addition of Malachite Green reagent and absorbance measurement at 650 nm. Assay 2) Macrophage TNF-α production. J774.1a macrophage cells were treated with 10 μg/mL of test compound dissolved in solvent (e.g. cyclodextran) for 40 minutes prior to the addition of 100 ng/mL LPS. Culture supernatants were collected after 2 hr and 5 hr for TNF-α determination by ELISA. Assay 3) Macrophage TNF-α NO assay. J774.1a macrophage cells were treated with 10 μg/ml of test compound dissolved in solvent for 40 minutes prior to the addition of LPS. Culture supernatants were collected after 24 hr. for determination of NO concentration using the Griess reagent. Assay 4) Stimulation of mast cells by FcεRI crosslinking. Mast cells were pre-loaded overnight in BMMC medium lacking IL-3 with 0.1 μg/ml anti-DNP IgE (SPE-7, Sigma, Oakville, Ont). For calcium flux measurements, cells were incubated with 2 μM fura 2-acetoxymethyl ester (Molecular Probes, Eugene, Oreg.) in Tyrode's buffer at 23° C. for 45 min. Cells were then washed and incubated in the presence of the test compound 30 min prior to stimulation with the indicated concentration of DNP-human serum albumin (DNP-HSA). Calcium influx was monitored by spectrofluorometry as described previously. For analysis of intracellular signaling, cells were pre-loaded with anti-DNP IgE as above, pre-treated with the test compound for 30 min at 37° C. and stimulated with 20 ng/ml DNP-HSA for 5 min. Total cell lysates were then prepared and analyzed for phospho-PKB, phospho-p38^MAPK, phospho-MAPK, Grb-2 (Cell Signalling, Mississauga, Ont) and SHIP^6 by immunoblot analysis. Assay 5) Mouse acute cutaneous anaphylaxis model. 6-8 week old CD1 mice (University of British Columbia Animal Facility, Vancouver, BC) were sensitized to the hapten DNP by cutaneous application of 25 μL of 0.5% dinitrofluorobenzene (DNFB) (Sigma, Oakville, Ont) in acetone to the shaved abdomen of mice for two consecutive days. 24 hrs later, test substances (dissolved in 10 μL of 1:2 DMSO:MeOH) were painted on the right ear while the left ear received vehicle control. 30 min after drug application, DNFB was applied to both ears to induce mast cell degranulation. A 6 mm punch was taken from the ear and immediately frozen on dry ice for subsequent determination of neutrophil myeloperoxidase (MPO) activity. Assay 6) Mouse endotoxemia model. 6-8 week old C57B16 mice (VCHRI Mammalian Model of Human Disease Core Facility, Vancouver, BC) were orally administered the test compound 30 min prior to an IP injection of 2 mg/kg of LPS (E. Coli serotype 0111:B4, Sigma, Oakville, Ont). Blood was drawn 2 hrs later for determination of plasma TNFα by ELISA. Assay 7) In vitro Mulitple Myeloma (MM) assay. The ability of SHIP activators to reduce tumor cell survival was assessed in MM cell lines treated with the test compound. The lines OPM1, OPM2, MM.1S and RPMI 8226 were plated at a density of 1×10^5 cells/mL in 200 μL of medium with various concentrations of the test compound, and viable cell numbers were determined on day 3 and day 5 by trypan blue exclusion. The lines RPMI 8226 and U266 were plated at a density of 1×10^6 cells/mL in 250 μL of medium with various concentrations of the test compound. At day 4, the medium of each culture was replaced by fresh medium containing the same concentration of test compound. […]

[4] = tested on: wild-type SHIP; assay: Scintillation proximity assay, wild-type SHIP; assay type: binding; details: SPA beads
Protocol: Compound 100 was radiolabelled with tritium by GE Healthcare (Piscataway, N.J.) to a specific activity of 42 Ci/mmole. Copper chelate (His-Tag) YSi SPA Scintillation Beads (GE ealthcare, Piscataway, N.J.) were diluted in 0.25% BSA/TBS to 1.5 mg/mL and recombinant, His6-tagged protein added at the indicated concentrations: wild-type (1 pM), ΔC2 SHIP enzyme (1 pM) or C2 domain (10 nM). Protein was allowed to bind 1 h at 23° C., and 250 μg of beads were aliquoted per well of a 96-well plate. 5 μCi of [^3H]-Compound 100 was added per well, the plate gently agitated for 30 min and the amount of bead associated radioactivity quantified by counting in a Wallac BetaPlate plate scintillation counter.
Isolated recombinant, His6-tagged C2 domain was expressed and its PI-3,4-P2 binding ability was determined using protein lipid overlay assays. Purified C2 domain was incubated with membrane strips spotted with PI-3,4-P2 and bound protein detected using an anti-His6 antibody. As shown in FIG. 11C the C2 domain bound PI-3,4-P2 and this binding was inhibited by Compound 100, consistent with both Compound 100 and PI-3,4-P2 interacting with the C2 domain at a common binding site.

binding of [3H]-Compound 100 to wild-type SHIP [4]: bound to wild-type SHIP
Compound: Cc1cc(O)cc2c1[C@]1(C)CCC3C(C)(C)CCC[C@]3(C)[C@H]1C2 (stereo partly drawn) [Compound 100]
Assay 2: Macrophage TNF-α production, desired activity [1]: +
LPS-induced plasma/serum TNFα levels ([2]; oral administration 30 min prior to LPS): efficiently inhibited
Assay 6: Mouse endotoxemia model, desired activity [2]: +
MM proliferation / tumor cell survival, comparison ([3]; OPM1, OPM2, MM.1S, RPMI 8226, U266, trypan blue): inhibits MM proliferation at lower concentrations than AQX-016A
Assay 7: In vitro Multiple Myeloma (MM) assay, desired activity [3]: +

Compound: Cc1cc(O)c(O)c2c1[C@]1(C)CCC3C(C)(C)CCC[C@]3(C)[C@H]1C2 (stereo partly drawn) [AQX-016A]
Assay 2: Macrophage TNF-α production, desired activity [1]: +
Assay 6: Mouse endotoxemia model, desired activity [2]: +
Assay 7: In vitro Multiple Myeloma (MM) assay, desired activity [3]: +
